Assay results: PMC9421656, “Beyond Retigabine: Design, Synthesis, and Pharmacological Characterization of a Potent and Chemically Stable Neuronal Kv7 Channel Activator with Anticonvulsant Activity” (Journal of Medicinal Chemistry, 2022)
Like-named read-outs stand apart in the source and are kept apart here.

Tests used:
Kv7.2 W236L channels = target: T1, Kv7.2 W236L channels (Homo sapiens, UniProt O43526, W236L); assay: Whole-cell patch-clamp on homomeric Kv7.2 W236L mutant channels; type: cell-based; conditions: 10 μM RET or 1 μM 60
T1 construct: expressed in transfected cells; host or cells: CHO cells, transient transfection (pcDNA3.1)

[1] = Photostability under UV-visible light with HPLC analysis (degradation, dimer formation); type: physicochemical; conditions: for % Degradation (3h, UV): 10 μM, buffered aqueous solution pH 7.4, 3 h UV-visible light, ± SD; for Dimers Formation: HPLC at 550 nm
From the text: Two different HPLC wavelengths were utilized: (a) […] to evaluate the decreased concentration of the starting molecule; (b) 550 nm to investigate the formation of phenazine/phenazinium dimers, as previously described.[10] Unfortunately, dimer formation was detected for all tested compounds, except for 23 and 24. […]. […]. The first group consisted of N4 (−X- in Table 2) substituted analogues, in which the tertiary amine is unavailable for the formation of phenazine dimers (compounds 25–28). […]. The third group included derivatives replacing hydrogen atoms with electron-withdrawing fluorine atoms at position R2 of the benzene-1,2,4-triamine core scaffold (compounds 59, 60), a strategy likely reducing the reactivity of N2 and N4. […].
(§1) Photostability experiments were performed by dissolving compounds in DMSO and then diluting in buffered aqueous solutions at pH 7.4 to a final concentration of 10 μM. 1 cm quartz cells, filled with the abovementioned solutions, were irradiated by a UV lamp (UV Consulting TQ 150 equipped with Duran 50 sleeve and 150 W power supply unit, Peschl, Germany) at a fixed distance of 20 cm from the UV source. Control samples were maintained at 37 °C, wrapped with aluminum foil to avoid light exposure, and used to assess chemical stability of the compounds. At predetermined intervals, aliquots were withdrawn and analyzed by UHPLC in order to assess the concentration decrease of the starting materials and the presence of the dimers usually formed by retigabine.
Photostability and chemical stability experiments were carried out on a Kinetex^TM C18 150 × 2.1 mm × 2.6 μm (100 Å) column (Phenomenex, Bologna, Italy). The optimal mobile phase consisted of 0.1% TFA/H2O v/v (A) and 0.1% TFA/ACN v/v (B). Analysis was performed in gradient elution as follows: 0–13.0 min, 5–65% B; 13–14.0 min, 65–95% B; 14–15.0 min, isocratic to 95% B; 15–15.01 min, 95–5% B; then 3 min for column re-equilibration. The flow rate was 0.5 mL min^–1. The column oven temperature was set to 45 °C. The injection volume was 7 μL of sample. The following PDA parameters were applied: sampling rate, 12.5 Hz; detector time constant, 0.160 s; cell temperature, 40 °C. Data acquisition was set in the range 190–800 nm, and chromatograms were monitored at 224 nm to assess the decrease in concentration of the starting material, while a wavelength of 550 nm was used to eventually detect dimerization.

[2] = In vitro metabolism assay (S9 fraction of human liver microsomes); type: in vitro ADME
Description: To further explore the metabolic stability of compounds 25, 26, and 60 in a biologically relevant model, they were tested in an in vitro metabolism assay (S9 fraction of human liver microsomes) using retigabine as a comparator.[33],[34] In this assay, a very small extent (4.7 ± 0.5%) of retigabine undergoes phase I metabolism, whereas a larger fraction (17.4 ± 1.2%) was metabolized in phase II reactions, as previously reported.[35]

[3] = Plasma concentration-time course and half-life in rats; conditions: Sprague-Dawley, rat, in vivo, ip, 3 mg/kg
Description: (§2) The drug half-lives were calculated using GraphPad Prism 8.0.2 (GraphPad Software, LaJolla, CA).
(§3) Returning to 40% B in 0.10 min. The flow rate was set at 0.5 mL/min. The column oven was set at 45 °C, and 5 μL of extract was injected. All additives and mobile phases were LCMS-grade and purchased from Merck (Milan, Italy).
(§4) The ESI was operated in positive mode. […] Interface temperature, desolvation line temperature, and heat block temperature were set, respectively, to 250, 250, and 350 °C. Nebulizing, drying (N2), and heating gas (air) were set, respectively, to 3, 10, and 10 L/min.

[4] = Chemical stability in aqueous buffer without light exposure; type: physicochemical; conditions: 3 h, avoiding UV light exposure
Description: […]. The reduced electron availability at N2 and N4 due to the presence of fluorine atom in position 3 of compound 60 strongly reduces also the first photo-oxidative step, thus conferring remarkable photostability.
as §1
Photostability and chemical stability experiments were carried out on a Kinetex^TM C18 150 × 2.1 mm × 2.6 μm (100 Å) column (Phenomenex, Bologna, Italy). […] Data acquisition was set in the range 190–800 nm, and chromatograms were monitored at 224 nm to assess the decrease in concentration of the starting material, while a wavelength of 550 nm was used to eventually detect dimerization.

in vivo = conditions: Sprague-Dawley, rat, ip, 0.3 mg/kg
Description: as §2, §3, §4

Kv7.2/Kv7.3 channels = Kv7.2/Kv7.3 channels (Homo sapiens, UniProt O43525+O43526); assay: Whole-cell patch-clamp electrophysiology in CHO cells expressing Kv7.2/Kv7.3; type: cell-based; set-up: expressed in transfected cells; host or cells: CHO cells, transient transfection (pcDNA3.1, Lipofectamine 2000); conditions: for EC50: dose-response 0.01–30 μM
Description: Channel subunits were expressed in Chinese hamster ovary (CHO) cells by transient transfection, using plasmids containing cDNAs encoding human Kv7.2 and/or Kv7.3, all cloned in the pcDNA3.1 vector. According to the experimental protocol, these plasmids were expressed individually or in combination, together with a plasmid-expressing enhanced green fluorescent protein (Clontech, Palo Alto, CA) used as a transfection marker. Total cDNA in the transfection mixture was kept at 4 μg. CHO cells were grown in 100 mm plastic Petri dishes in Dulbecco’s modified Eagle’s medium containing 10% fetal bovine serum, nonessential amino acids (0.1 mM), penicillin (50 U/mL), and streptomycin ([…]) in a humidified atmosphere at 37 °C with 5% CO2.
Currents from CHO cells were recorded at room temperature (20–22 °C) using the whole-cell configuration of the patch-clamp technique, with glass micropipettes of 3–5 MΩ resistance. During the recording, constant perfusion of extracellular solution was maintained. […] The pipette (intracellular) solution contained (in mM): 140 KCl, 2 MgCl2, 10 EGTA, 10 HEPES, 5 Mg^2+-ATP, at pH 7.3–7.4, with KOH. […] To evaluate the activity of each compound on Kv7.2 + Kv7.3 currents, the cells were clamped at −80 mV and conductance–voltage curves (G/V curves; activation curves) were generated by normalizing to the maximal value of the instantaneous isopotential currents at 0 mV and expressing the normalized values as a function of the preceding voltages. Data were fit to a Boltzmann distribution of the following form: y = max/[1 + exp (V1/2 – V)/k], where V is the test potential, V1/2 is the half-activation potential, and k is the slope factor.
Indicated EC50 values are the mean of at least three independent experiments ± standard error of the mean (SEM).
Statistically significant differences in electrophysiological data were evaluated with the Student t test or with ANOVA followed by the Student–Newman–Keuls test when multiple groups were compared, with the threshold set at p < 0.05. […] Values are expressed as the […] mean ± standard error of the mean (SEM) of at least three cells recorded in at least three independent transfections.

[5] = S9 fraction of human liver microsomes

CCOC(=O)Nc1ccc(NCc2ccc(F)cc2)cc1N [RET, retigabine]
Kv7 opening ability in W236L channels (Kv7.2 W236L channels): almost fully abolished | % Degradation (3h, UV) [1]: 61.3±0.1% | Dimers Formation ([1]; 3 h UV-visible light): Yes | Phase I turnover metabolism [2, 5]: 4.7 ± 0.5% | Phase II turnover metabolism [2, 5]: 17.4 ± 1.2% | log P (Lipophilicity (log P); method not stated): 3.08 | half-life [3]: 144 min

CC(C)(C)CC(=O)Nc1ccc(NCc2ccc(C(F)(F)F)cc2)c(F)c1N [compound 60, N-(2-Amino-3-fluoro-4-((4-(trifluoromethyl)benzyl)amino)phenyl)-3,3-dimethylbutanamide]
Kv7 opening ability in W236L channels (Kv7.2 W236L channels): almost fully abolished | % Degradation (3h, UV) [1]: 34.8± 1.8% | Dimers Formation ([1]; 3 h UV-visible light): failed to dimerize and No | Photodegradation (in words) ([1]; 3 h UV-visible light, compared with retigabine): more photostable than retigabine | Chemical stability [4]: showed chemical stability | Phase I turnover metabolism ([2]; human): 8.2 ± 2.7% | Phase II turnover metabolism ([2]; human): 15.6 ± 0.3% | concentration at 0.5 h (in vivo): 9 ng/mL | concentration at 2 h (in vivo): 8.7 ng/mL | concentration at 4 h (in vivo): 6.8 ng/mL | concentration at 8 h (in vivo): 5.4 ng/mL | concentration at 24 h (in vivo): 0 ng/mL | half-life (in vivo): 1010 min | logP (Lipophilicity (log P)): 4.74 | Potency relative to RL-81 (Kv7.2/Kv7.3 channels): about twice more potent than RL-81 | Leftward shift in V1/2 (ΔV1/2) (Kv7.2/Kv7.3 channels; 1 μM): ~50 mV | Idrug/Icontrol (maximal current density) (Kv7.2/Kv7.3 channels; calculated at +20 mV): 2.1 ± 0.3 | EC50 (Kv7.2/Kv7.3 channels; current at +20 mV, read-out: Maximal currents EC50): 60 ± 10 nM | EC50 (Kv7.2/Kv7.3 channels; read-out: ΔV1/2 EC50): 150 ± 30 nM | Potency over retigabine as Kv7.2/Kv7.3 activator (fold/times) (Kv7.2/Kv7.3 channels; from ΔV1/2 EC50): 16
